# Results taken from article PMC8286840, “Identifying SARS-CoV-2 antiviral compounds by screening for small molecule inhibitors of Nsp3 papain-like protease” (Biochemical Journal, 2021).
# Counter-ions that a name gives are not always drawn. Like-named read-outs stand apart in the source and are kept apart here.
# Columns and labels:
# [1] = target: T1, SARS-CoV-2 PLpro (nsp3 1564–1878) (Severe acute respiratory syndrome coronavirus 2, UniProt P0DTD1); assay: biochemical; parameters: FRET-quenched peptide (Pro3) cleavage by PLpro, 10 min pre-incubation, slope over 20 min, normalised to no-compound control; settings: read-out: % of control remaining
# [2] = target: T1, SARS-CoV-2 PLpro (nsp3 1564–1878); assay: biochemical; parameters: FRET-quenched peptide (Pro3) cleavage by PLpro, 10 min pre-incubation, slope over 20 min, normalised to no-compound control; settings: read-out: % of control remaining; remark: listed apart in the source
smiles,measurement,setting,value
Cc1ccccc1CN1C(=O)C2=C(CCN(Cc3ccccc3)C2)N2CCN=C12 [TIC10],remaining activity at 3.75 µM,[1],96.2%
same,remaining activity at 1.25 µM,[2],97.7%
Cc1cc(COc2nc(N)nc3ccn(Cc4ccccn4)c23)no1 [TLR7 agonist 2],remaining activity at 3.75 µM,"[1]; Well no.=8227, high concentration screen",103%
same,remaining activity at 1.25 µM,"[2]; Well no.=8227, low concentration screen",106%
CCCCc1nc2c(N)nc3ccccc3c2n1Cc1ccc(CN)cc1 [TLR7/8 agonist 1 (dihydrochloride)],remaining activity at 3.75 µM,"[1]; Well no.=8259, high concentration screen",99.6%
same,remaining activity at 1.25 µM,"[2]; Well no.=8259, low concentration screen",102%
O=C(COCC(=O)Nc1ccc(Cl)cc1C(=O)O)Nc1cccc(-c2ccoc2)c1 [TM5441],remaining activity at 3.75 µM,"[1]; Well no.=6540, high concentration screen",105%
same,remaining activity at 1.25 µM,"[2]; Well no.=6540, low concentration screen",109%
CCN(CC)CCCCCCCCOC(=O)c1cc(OC)c(OC)c(OC)c1 [TMB-8 hydrochloride],remaining activity at 3.75 µM,"[1]; Well no.=101, high concentration screen",104%
same,remaining activity at 1.25 µM,"[2]; Well no.=101, low concentration screen",104%
CP(=O)(O)C1=CCNCC1 [TPMPA],remaining activity at 3.75 µM,"[1]; Well no.=1474, high concentration screen",102%
same,remaining activity at 1.25 µM,"[2]; Well no.=1474, low concentration screen",100%
COc1cccc(OC)c1-c1ccc(C[C@H](NC(=O)c2c(Cl)cccc2Cl)C(=O)O)cc1 [TR-14035],remaining activity at 3.75 µM,"[1]; Well no.=8514, high concentration screen",93.8%
same,remaining activity at 1.25 µM,"[2]; Well no.=8514, low concentration screen",96.3%
Clc1ccccc1C(c1ccccc1)(c1ccccc1)n1cccn1 [TRAM-34],remaining activity at 3.75 µM,"[1]; Well no.=4707, high concentration screen",103%
same,remaining activity at 1.25 µM,"[2]; Well no.=4707, low concentration screen",107%
CC(C)C[C@H](NC(=O)[C@H](CC(C)C)NC(=O)[C@H](Cc1ccccc1)NC(=O)[C@@H](N)CO)C(=O)N[C@@H](CCCN=C(N)N)C(=O)N[C@@H](CC(N)=O)C(=O)O [TRAP-6],remaining activity at 3.75 µM,"[1]; Well no.=6278, high concentration screen",103%
same,remaining activity at 3.75 µM,"[1]; Well no.=8364, high concentration screen",97.2%
same,remaining activity at 1.25 µM,"[2]; Well no.=6278, low concentration screen",101%
same,remaining activity at 1.25 µM,"[2]; Well no.=8364, low concentration screen",98.5%
COC(=O)[C@H](Cc1c[nH]c2ccccc12)N(Cc1ccccc1)Cc1ccccc1 [TRPM8 antagonist 2],remaining activity at 3.75 µM,"[1]; Well no.=7732, high concentration screen",97.5%
same,remaining activity at 1.25 µM,"[2]; Well no.=7732, low concentration screen",95.3%
Cc1[nH]c(/C=C2\C(=O)Nc3ccccc32)c(C)c1CCC(=O)O [TSU-68 (SU6668)],remaining activity at 3.75 µM,"[1]; Well no.=4899, high concentration screen",95.8%
same,remaining activity at 1.25 µM,"[2]; Well no.=4899, low concentration screen",99.4%
C/C(=C\c1ccc(C(=O)O)cc1)c1ccc2c(c1)C(C)(C)CCC2(C)C [TTNPB],remaining activity at 3.75 µM,"[1]; Well no.=1429, high concentration screen",99.8%
same,remaining activity at 3.75 µM,"[1]; Well no.=4436, high concentration screen",100%
same,remaining activity at 1.25 µM,"[2]; Well no.=1429, low concentration screen",97.8%
same,remaining activity at 1.25 µM,"[2]; Well no.=4436, low concentration screen",93%
C#CCN[C@@H]1CCc2ccccc21 [TVP1022],remaining activity at 3.75 µM,"[1]; Well no.=5527, high concentration screen",112%
same,remaining activity at 1.25 µM,"[2]; Well no.=5527, low concentration screen",101%
Nc1cccc(-c2cc3c(Oc4cccc(O)c4)ncnc3[nH]2)c1 [TWS119],remaining activity at 3.75 µM,"[1]; Well no.=4612, high concentration screen",99.7%
same,remaining activity at 1.25 µM,"[2]; Well no.=4612, low concentration screen",100%
Cc1cc(C=C2C(=O)C=CC2=O)cc(C)c1O [TX-1918],remaining activity at 3.75 µM,"[1]; Well no.=2677, high concentration screen",98.1%
same,remaining activity at 1.25 µM,"[2]; Well no.=2677, low concentration screen",96.7%
CC(C)(C)C(=O)C(=Nc1ccc(Cl)cc1)NNc1ccc(Cl)cc1 [TY-52156],remaining activity at 3.75 µM,"[1]; Well no.=7819, high concentration screen",104%
same,remaining activity at 1.25 µM,"[2]; Well no.=7819, low concentration screen",105%
C=CC[C@@H]1/C=C(\C)C[C@H](C)C[C@H](OC)[C@H]2O[C@@](O)(C(=O)C(=O)N3CCCC[C@H]3C(=O)O[C@H](/C(C)=C/[C@@H]3CC[C@@H](O)[C@H](OC)C3)[C@H](C)[C@@H](O)CC1=O)[C@H](C)C[C@@H]2OC [Tacrolimus (monohydrate)],remaining activity at 3.75 µM,"[1]; Well no.=6306, high concentration screen",93.9%
same,remaining activity at 3.75 µM,"[1]; Well no.=7308, high concentration screen",107%
same,remaining activity at 1.25 µM,"[2]; Well no.=6306, low concentration screen",96.8%
same,remaining activity at 1.25 µM,"[2]; Well no.=7308, low concentration screen",104%
CN1CC(=O)N2[C@H](c3ccc4c(c3)OCO4)c3[nH]c4ccccc4c3C[C@@H]2C1=O [Tadalafil],remaining activity at 3.75 µM,"[1]; Well no.=8188, high concentration screen",95.9%
same,remaining activity at 1.25 µM,"[2]; Well no.=8188, low concentration screen",95%
